Assay results published in patent publication US11427553B2, “Dihydrooxadiazinones” (Bayer Aktiengesellschaft, priority 2017, dated 2022).

Experiments:
HeLa cells = assay: Assay 1 cell proliferation measurement (CTG, 72 h), HeLa; type: cell-based, human; conditions: Homo sapiens, HeLa; Assay 1, 72 h, Cell Titer Glo; read-out: HeLa IC50 [nM] (Cervical cancer)
Summary of the method: (§1)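 CellTiter-Glo luminescence was read at treatment start (0 h plate) and after 72 h compound exposure at 37 °C. Doses were 2.5-fold steps, ten concentrations, top 100 nM final, 0.3% DMSO. Growth inhibition was scaled between 0 h and vehicle values, and IC50 was obtained by 4-parameter fitting.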

SK-MEL-3 cells = assay: Assay 1 cell proliferation measurement (CTG, 72 h), SK-MEL-3; type: cell-based, human; conditions: Homo sapiens, SK-MEL3; Assay 1, 72 h, Cell Titer Glo; read-out: SK-MEL-3 IC50 [nM] (melanoma)
Summary of the method: as §1

human full length PDE3A = human full length PDE3A (Homo sapiens (Human), UniProt Q14432); assay: Assay 4 PDE3A enzyme inhibition (3H-cAMP SPA); type: biochemical; conditions: Sf9 cell extract
Sequence of human full length PDE3A (Q14432 whole entry): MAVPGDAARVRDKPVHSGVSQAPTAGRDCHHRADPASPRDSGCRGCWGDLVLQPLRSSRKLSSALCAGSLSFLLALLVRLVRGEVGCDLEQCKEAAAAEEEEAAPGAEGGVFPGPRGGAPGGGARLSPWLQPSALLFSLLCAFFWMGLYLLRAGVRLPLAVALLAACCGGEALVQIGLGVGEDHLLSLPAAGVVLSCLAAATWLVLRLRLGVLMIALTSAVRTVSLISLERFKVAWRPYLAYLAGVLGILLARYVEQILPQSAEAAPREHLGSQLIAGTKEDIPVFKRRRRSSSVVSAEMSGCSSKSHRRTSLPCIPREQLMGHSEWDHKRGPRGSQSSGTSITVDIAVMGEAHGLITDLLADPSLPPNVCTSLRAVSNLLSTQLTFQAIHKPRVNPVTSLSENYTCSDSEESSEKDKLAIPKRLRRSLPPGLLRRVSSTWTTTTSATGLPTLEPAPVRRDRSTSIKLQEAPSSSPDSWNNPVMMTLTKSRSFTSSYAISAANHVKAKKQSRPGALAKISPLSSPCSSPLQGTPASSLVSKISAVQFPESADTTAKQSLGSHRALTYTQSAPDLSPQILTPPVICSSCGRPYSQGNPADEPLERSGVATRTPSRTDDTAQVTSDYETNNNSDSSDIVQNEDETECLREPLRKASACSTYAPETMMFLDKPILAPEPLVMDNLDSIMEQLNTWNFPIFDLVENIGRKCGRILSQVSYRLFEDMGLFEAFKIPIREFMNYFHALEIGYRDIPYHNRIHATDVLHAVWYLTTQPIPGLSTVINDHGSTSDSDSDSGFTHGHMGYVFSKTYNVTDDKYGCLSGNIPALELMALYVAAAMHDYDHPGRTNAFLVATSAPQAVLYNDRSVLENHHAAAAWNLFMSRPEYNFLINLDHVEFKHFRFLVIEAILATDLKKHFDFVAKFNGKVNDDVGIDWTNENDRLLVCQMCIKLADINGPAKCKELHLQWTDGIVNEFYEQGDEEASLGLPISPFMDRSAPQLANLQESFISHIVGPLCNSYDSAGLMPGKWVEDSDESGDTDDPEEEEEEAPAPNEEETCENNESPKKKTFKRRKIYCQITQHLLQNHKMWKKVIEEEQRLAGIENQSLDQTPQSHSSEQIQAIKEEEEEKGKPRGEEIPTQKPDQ
Summary of the method: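 In this SPA format, the 60-min room-temperature reaction used 0.025 μCi [8-3H]cAMP and diluted full-length PDE3A from Sf9 cells. Percentage activity was plotted against log compound concentration to derive IC50.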

human full length PDE3B = human full length PDE3B (Homo sapiens (Human), UniProt Q13370); assay: Assay 5 PDE3B enzyme inhibition (3H-cAMP SPA); type: biochemical; conditions: Sf9 cell extract
Sequence of human full length PDE3B (Q13370 whole entry): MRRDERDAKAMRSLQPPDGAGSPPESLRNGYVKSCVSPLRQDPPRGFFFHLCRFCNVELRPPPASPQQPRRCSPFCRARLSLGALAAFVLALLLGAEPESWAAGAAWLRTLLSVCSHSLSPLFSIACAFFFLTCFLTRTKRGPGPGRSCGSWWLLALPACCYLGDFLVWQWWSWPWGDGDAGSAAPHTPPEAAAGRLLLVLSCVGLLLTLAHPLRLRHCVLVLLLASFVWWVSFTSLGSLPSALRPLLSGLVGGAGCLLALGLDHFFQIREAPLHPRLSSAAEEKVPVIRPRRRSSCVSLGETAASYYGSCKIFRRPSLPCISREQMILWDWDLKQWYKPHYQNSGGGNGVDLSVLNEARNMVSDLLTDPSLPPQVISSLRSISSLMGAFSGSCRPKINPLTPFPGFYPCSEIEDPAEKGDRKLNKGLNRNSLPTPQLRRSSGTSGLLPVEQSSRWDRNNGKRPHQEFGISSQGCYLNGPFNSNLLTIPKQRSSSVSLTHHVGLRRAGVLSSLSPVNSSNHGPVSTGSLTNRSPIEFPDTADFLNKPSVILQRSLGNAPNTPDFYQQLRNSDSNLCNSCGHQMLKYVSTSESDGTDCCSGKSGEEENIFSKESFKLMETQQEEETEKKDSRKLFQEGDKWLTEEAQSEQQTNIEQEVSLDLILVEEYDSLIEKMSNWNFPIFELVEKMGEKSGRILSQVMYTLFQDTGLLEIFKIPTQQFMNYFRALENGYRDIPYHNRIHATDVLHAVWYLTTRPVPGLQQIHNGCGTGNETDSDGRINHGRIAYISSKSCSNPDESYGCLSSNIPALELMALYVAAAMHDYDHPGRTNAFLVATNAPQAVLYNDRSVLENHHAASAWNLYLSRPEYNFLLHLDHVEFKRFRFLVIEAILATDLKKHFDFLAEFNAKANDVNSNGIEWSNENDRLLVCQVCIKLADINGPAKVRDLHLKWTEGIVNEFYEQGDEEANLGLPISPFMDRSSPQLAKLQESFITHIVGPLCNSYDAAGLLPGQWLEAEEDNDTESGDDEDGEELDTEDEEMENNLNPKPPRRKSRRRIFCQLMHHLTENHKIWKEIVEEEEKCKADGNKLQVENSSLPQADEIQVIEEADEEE
Summary of the method: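 Hydrolysis of tritiated cAMP by Sf9-expressed full-length human PDE3B proceeded 60 min at room temperature in Tris buffer pH 7.5 containing Mg2+, EDTA and BSA, with enzyme dilution keeping substrate consumption below 70%. IC50 derived from percent activity versus log compound concentration.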

| SMILES | IC50 (HeLa cells) [nM] | IC50 (SK-MEL-3 cells) [nM] | IC50 (human full length PDE3A) [nM] | IC50 (human full length PDE3B) [nM] |
| --- | --- | --- | --- | --- |
| Cc1ccc(-c2ccc(C3=NNC(=O)OC3)cc2F)cn1 [Example 97, 5-[3-Fluoro-4-(6-methylpyridin-3-yl)phenyl]-3,6-dihydro-2H-1,3,4-oxadiazin-2-one] | 5 | 8 | 65 | 130 |
| COc1ccc(-c2ccc(C3=NNC(=O)O[C@H]3C)cc2C(F)(F)F)cn1 [Example 187, (6S)-5-[4-(6-Methoxypyridin-3-yl)-3-(trifluoromethyl)phenyl]-6-methyl-3,6-dihydro-2H-1,3,4-oxadiazin-2-one] | 23 | 40 | 81 | 100 |
| O=C1NN=C(c2ccc(-c3cn[nH]c3)c(C(F)F)c2)CO1 [Example 202, 5-(3-(difluoromethyl)-4-(1H-pyrazol-4-yl)phenyl)-3H-1,3,4-oxadiazin-2(6H)-one] | 5 | 12 | 76 | 63 |
| Cc1ccncc1-c1ccc(C2=NNC(=O)OC2)cc1F [Example 118, 5-[3-Fluoro-4-(4-methylpyridin-3-yl)phenyl]-3,6-dihydro-2H-1,3,4-oxadiazin-2-one] | 3 | 6 | 60 | 64 |
| O=C1NN=C(c2ccc(-c3ccccc3F)c(F)c2)CO1 [Example 114, 5-(2,2′-Difluoro[1,1′-biphenyl]-4-yl)-3,6-dihydro-2H-1,3,4-oxadiazin-2-one] | 4 | 7 | 92 | 100 |
| Cc1ncc(-c2ccc(C3=NNC(=O)OC3)cc2F)cn1 [Example 94, 5-[3-Fluoro-4-(2-methylpyrimidin-5-yl)phenyl]-3,6-dihydro-2H-1,3,4-oxadiazin-2-one] | 16 | 36 | 91 | 280 |
| C[C@@H]1OC(=O)NN=C1c1ccc(N2CCOCC2)c(F)c1 [Example 25-1, (6S)-5-(3-Fluoro-4-morpholinophenyl)-6-methyl-3,6-dihydro-2H-1,3,4-oxadiazin-2-one] | 2 | 3 | 44 | 22 |
| Cc1ccc(-c2ccc(C3=NNC(=O)OC3)cc2C(F)F)cn1 [Example 200, 5-[3-(Difluoromethyl)-4-(6-methylpyridin-3-yl)phenyl]-3,6-dihydro-2H-1,3,4-oxadiazin-2-one] | 10 | 22 | 34 | 66 |
| CC1OC(=O)NN=C1c1ccc(Br)cc1 (racemic) [Intermediate 72, (rac)-5-(4-Bromophenyl)-6-methyl-3,6-dihydro-2H-1,3,4-oxadiazin-2-one] | 78 | 260 | 320 | 400 |
| Cc1ccc(-c2ccc(C3=NNC(=O)O[C@H]3C)cc2C(F)(F)F)cn1 [Example 167, (6S)-6-Methyl-5-[4-(6-methylpyridin-3-yl)-3-(trifluoromethyl)phenyl]-3,6-dihydro-2H-1,3,4-oxadiazin-2-one] | 4 | 6 | 34 | 66 |
| C[C@@H]1OC(=O)NN=C1c1ccc(-c2cccc(O)c2)c(C(F)(F)F)c1 [Example 175, (6S)-5-[3′-Hydroxy-2-(trifluoromethyl)[1,1′-biphenyl]-4-yl]-6-methyl-3,6-dihydro-2H-1,3,4-oxadiazin-2-one] | 6 | 3 | 26 | 24 |
| Nc1ccccc1-c1ccc(C2=NNC(=O)OC2)cc1F [Example 102, 5-(2′-Amino-2-fluoro[1,1′-biphenyl]-4-yl)-3,6-dihydro-2H-1,3,4-oxadiazin-2-one] | 23 | 40 | 170 | 280 |

Now from value to molecule:

| IC50 (HeLa cells) [nM] | IC50 (SK-MEL-3 cells) [nM] | IC50 (human full length PDE3A) [nM] | IC50 (human full length PDE3B) [nM] | SMILES |
| --- | --- | --- | --- | --- |
| 22 | 39 | 140 | 310 | C=C(C)c1ccc(C2=NNC(=O)OC2)cc1C(F)(F)F [Example 147, 5-[4-(Prop-1-en-2-yl)-3-(trifluoromethyl)phenyl]-3,6-dihydro-2H-1,3,4-oxadiazin-2-one] |
| 17 | 41 | 221 | 193 | O=C1NN=C(c2ccc(-c3cccc(F)c3F)c(C(F)(F)F)c2)CO1 [Example 64, 5-[2′,3′-Difluoro-2-(trifluoromethyl)biphenyl-4-yl]-3,6-dihydro-2H-1,3,4-oxadiazin-2-one] |
| 34 | 48 | 96 | 85 | Nc1cccc(-c2ccc(C3=NNC(=O)OC3)cc2C(F)(F)F)c1F [Example 43, 5-[3′-Amino-2′-fluoro-2-(trifluoromethyl)biphenyl-4-yl]-3,6-dihydro-2H-1,3,4-oxadiazin-2-one] |
| 6 | 9 | 140 | 100 | CCN(C)c1ccc(C2=NNC(=O)OC2)cc1C(F)(F)F [Example 223, 5-{4-[Ethyl(methyl)amino]-3-(trifluoromethyl)phenyl}-3,6-dihydro-2H-1,3,4-oxadiazin-2-one] |
| > 100 | > 100 | 78 | 31 | Cn1cc(-c2ccc(C3=NNC(=O)OC3)cc2C(F)(F)F)c(C(F)(F)F)n1 [Example 127, 5-{4-[1-Methyl-3-(trifluoromethyl)-1H-pyrazol-4-yl]-3-(trifluoromethyl)phenyl}-3,6-dihydro-2H-1,3,4-oxadiazin-2-one] |
| 2 | 5 | 18 | 20 | O=C1NN=C(c2ccc(NC3COC3)c(C(F)(F)F)c2)CO1 [Example 262, 5-{4-[(Oxetan-3-yl)amino]-3-(trifluoromethyl)phenyl}-3,6-dihydro-2H-1,3,4-oxadiazin-2-one] |
| 8 | 16 | 240 | 240 | Cc1ncc(-c2ccc(C3=NNC(=O)OC3)cc2C(F)(F)F)cc1F [Example 48, 5-[4-(5-Fluoro-6-methylpyridin-3-yl)-3-(trifluoromethyl)phenyl]-3,6-dihydro-2H-1,3,4-oxadiazin-2-one] |
| 1 | 1 | 44 | 53 | O=C1NN=C(c2ccc([C@H]3CC[C@@H](O)CC3)c(C(F)(F)F)c2)CO1 [Example 273, (cis)-5-{4-[4-Hydroxycyclohexyl]-3-(trifluoromethyl)phenyl}-3,6-dihydro-2H-1,3,4-oxadiazin-2-one] |
| 2 | 3 | 66 | 100 | O=C1NN=C(c2ccc(NCC3CCCO3)c(C(F)(F)F)c2)CO1 (racemic) [Example 215, (rac)-5-[4-({[Oxolan-2-yl]methyl}amino)-3-(trifluoromethyl)phenyl]-3,6-dihydro-2H-1,3,4-oxadiazin-2-one] |
| 4 | 6 | 81 | 152 | Cn1cc(-c2ccc(C3=NNC(=O)OC3)cc2OC(F)(F)F)cn1 [Example 68, 5-[4-(1-Methyl-1H-pyrazol-4-yl)-3-(trifluoromethoxy)phenyl]-3,6-dihydro-2H-1,3,4-oxadiazin-2-one] |
| 14 | 9 | 190 | 200 | Nc1ccc(-c2ccc(C3=NNC(=O)OC3)cc2C(F)(F)F)c(F)c1 [Example 44, 5-[4′-Amino-2′-fluoro-2-(trifluoromethyl)biphenyl-4-yl]-3,6-dihydro-2H-1,3,4-oxadiazin-2-one] |
